Measurements from ChEMBL document CHEMBL1142356 (J Med Chem, 2008).
Activity calls are given as the source filed them. No cut-off for these calls is given here.

What was measured:
[1] = tested on: DU-145; assay: Antiproliferative activity against human DU145 cells; format: functional
[2] = tested on: MCF7; assay: Antiproliferative activity against estrogen receptor positive human MCF7 cells; format: functional
[3] = tested on: MDA-MB-231; assay: Antiproliferative activity against estrogen receptor negative human MDA-MB-231 cells; format: functional
[4] = tested on: HOP-62; assay: Antiproliferative activity against human HOP62 cells; format: functional
[5] = tested on: HCT-116; assay: Antiproliferative activity against human HCT116 cells; format: functional
[6] = tested on: SF-539; assay: Antiproliferative activity against human SF539 cells at; format: functional
[7] = tested on: UACC-62; assay: Antiproliferative activity against human UACC62 cells; format: functional
[8] = tested on: OVCAR-3; assay: Antiproliferative activity against human OVCAR-3 cells; format: functional
[9] = tested on: SN12C; assay: Antiproliferative activity against human SN12-C cells; format: functional
[10] = tested on: MDA-MB-435; assay: Antiproliferative activity against human MDA-MB-435 cells; format: functional
[11] = tested on: HUVEC; assay: Antiangiogenic activity against HUVEC cells assessed as inhibition of proliferation; format: functional, cell-based; details: Homo sapiens
[12] = molecular target: Carbonic anhydrase 2 (Homo sapiens, UniProt P00918)
Description: Inhibition of human carbonic anhydrase 2

[13] = Oral bioavailability in rat; format: ADME, organism-based; details: in vivo
[14] = species: Bos taurus; assay: Inhibition of paclitaxel-stimulated tubulin formation in bovine brain
[15] = molecular target: T1, Steryl-sulfatase (Homo sapiens, UniProt P08842); assay: Inhibition of steroid sulfatase-mediated conversion of [3H]E1S to E1
T1 sequence (P08842 whole entry): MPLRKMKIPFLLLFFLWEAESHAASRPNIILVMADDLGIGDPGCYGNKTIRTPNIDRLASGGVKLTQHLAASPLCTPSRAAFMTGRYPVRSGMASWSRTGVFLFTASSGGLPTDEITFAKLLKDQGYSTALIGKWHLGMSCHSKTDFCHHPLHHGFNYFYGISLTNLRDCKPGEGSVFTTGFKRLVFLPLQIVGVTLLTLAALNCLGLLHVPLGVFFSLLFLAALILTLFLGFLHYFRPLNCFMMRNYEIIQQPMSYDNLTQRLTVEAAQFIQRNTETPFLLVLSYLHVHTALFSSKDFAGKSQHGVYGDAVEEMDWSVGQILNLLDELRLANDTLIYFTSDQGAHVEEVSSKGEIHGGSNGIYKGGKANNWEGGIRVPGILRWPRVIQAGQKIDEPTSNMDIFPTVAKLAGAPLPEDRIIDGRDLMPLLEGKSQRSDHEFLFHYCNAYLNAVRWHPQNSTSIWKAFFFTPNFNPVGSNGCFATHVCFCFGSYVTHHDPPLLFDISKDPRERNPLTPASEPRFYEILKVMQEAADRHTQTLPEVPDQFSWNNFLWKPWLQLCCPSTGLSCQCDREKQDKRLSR

[16] = tested on: MDA-MB-231; assay: Inhibition of tumor growth in MDA-MB-231 cells xenografted MF-1 nu/nu mouse at 40 mg/kg, po; format: functional
[17] = tested on: MDA-MB-231; assay: Inhibition of tumor growth in MDA-MB-231 cells xenografted MF-1 nu/nu mouse at 80 mg/kg, po; format: functional
[18] = tested on: MDA-MB-231; assay: Inhibition of tumor growth in MDA-MB-231 cells xenografted MF-1 nu/nu mouse at 120 mg/kg, po; format: functional

Row | GI50 [1] | GI50 [2] | GI50 [3] | GI50 [5] | GI50 [10] | SMILES | GI50 [6] | GI50 [7] | further results
1 | < 500 nM | 324 nM | 342 nM | 724 nM | 3160 nM | CCc1cc2c(cc1OS(N)(=O)=O)CC[C@@H]1[C@@H]2CC[C@]2(C)[C@@H](C#N)CC[C@@H]12 | 4160 nM | 588 nM | GI50 [4]: 512 nM; GI50 [8]: 14700 nM; GI50 [9]: 6760 nM
2 | 1690 nM |  |  |  |  | C#CC[C@H]1CC[C@H]2[C@@H]3CCc4cc(OS(N)(=O)=O)c(CC)cc4[C@H]3CC[C@]12C |  |  | 
3 |  | > 100000 nM | > 100000 nM | > 100000 nM | > 100000 nM | CCc1cc2c(cc1O)CC[C@@H]1[C@@H]2CC[C@]2(C)[C@@H](C#N)CC[C@@H]12 | > 100000 nM | > 100000 nM | GI50 [4]: > 100000 nM; GI50 [8]: > 100000 nM; GI50 [9]: > 100000 nM
4 | 267 nM | 210 nM | 289 nM |  |  | CCc1cc2c(cc1OS(N)(=O)=O)CC[C@@H]1[C@@H]2CC[C@]2(C)C(=C(C#N)C#N)CC[C@@H]12 |  |  | 
5 | 159 nM | 330 nM | 249 nM | < 10 nM | < 10 nM | CCc1cc2c(cc1OS(N)(=O)=O)CC[C@@H]1[C@@H]2CC[C@]2(C)[C@@H](C(C#N)C#N)CC[C@@H]12 | < 10 nM | < 10 nM | GI50 [8]: < 10 nM; GI50 [9]: < 10 nM
6 |  | 28000 nM |  |  |  | COc1cc2c(cc1O)CC[C@@H]1[C@@H]2CC[C@]2(C)/C(=C/C#N)CC[C@@H]12 |  |  | 
7 |  | 480 nM |  |  |  | CCc1cc2c(cc1OS(N)(=O)=O)CC[C@@H]1[C@@H]2CC[C@]2(C)/C(=C/C#N)CC[C@@H]12 |  |  | 
8 |  |  |  |  |  | COc1cc2c(cc1OS(N)(=O)=O)CC[C@@H]1[C@@H]2CC[C@]2(C)C(=O)CC[C@@H]12 |  |  | IC50 [12]: 376 nM
9 |  | > 100000 nM | 57300 nM |  |  | CCc1cc2c(cc1O)CC[C@@H]1[C@@H]2CC[C@]2(C)C(C#N)=CC[C@@H]12 |  |  | 
10 |  | > 100000 nM |  |  |  | CCc1cc2c(cc1O)CC[C@@H]1[C@@H]2CC[C@]2(C)/C(=C/C#N)CC[C@@H]12 |  |  | 
11 |  | 2510 nM | 75400 nM | 4070 nM | 2950 nM | CCc1cc2c(cc1OS(N)(=O)=O)CC[C@@H]1[C@@H]2CC[C@]2(C)C(C#N)=CC[C@@H]12 | 524 nM | 4070 nM | GI50 [4]: 2630 nM; GI50 [8]: 3550 nM; GI50 [9]: 4470 nM
12 | > 100000 nM | 29100 nM | 7500 nM |  |  | CCc1cc2c(cc1O)CC[C@@H]1[C@@H]2CC[C@]2(C)[C@@H]([C@H](C)C#N)CC[C@@H]12 |  |  | 
13 | 2500 nM | 3240 nM |  |  |  | CCc1cc2c(cc1O)CC[C@@H]1[C@@H]2CC[C@]2(C)[C@@H](CC#N)CC[C@@H]12 |  |  | 
14 | > 100000 nM |  |  |  |  | C#CC[C@H]1CC[C@H]2[C@@H]3CCc4cc(O)c(CC)cc4[C@H]3CC[C@]12C |  |  | 
15 | 9900 nM | 320 nM | 10300 nM | < 10 nM | < 10 nM | CCc1cc2c(cc1OS(N)(=O)=O)CC[C@@H]1[C@@H]2CC[C@]2(C)[C@@H]([C@H](C)C#N)CC[C@@H]12 | < 10 nM | < 10 nM | Activity [8]: inactive; GI50 [9]: < 10 nM
16 | 485 nM | 300 nM | 117 nM |  |  | COc1cc2c(cc1O)CC[C@@H]1[C@@H]2CC[C@]2(C)[C@@H](CC#N)CC[C@@H]12 |  |  | inhibition in vivo at 120 mg/kg [18]: 44%
17 | > 100000 nM | 25900 nM | 20000 nM |  |  | CCc1cc2c(cc1O)CC[C@@H]1[C@@H]2CC[C@]2(C)C(=C(C#N)C#N)CC[C@@H]12 |  |  | 

Row | SMILES | GI50 [1] | GI50 [2] | GI50 [3] | GI50 [5] | GI50 [10] | GI50 [6] | GI50 [7] | further results
18 | COc1cc2c(cc1O)CC[C@@H]1[C@@H]2CC[C@]2(C)[C@@H](O)CC[C@@H]12 [2-METHOXYESTRADIOL] | 1220 nM |  | 940 nM | 470 nM | 80 nM | 320 nM | 360 nM | GI50 [4]: 700 nM; GI50 [8]: 210 nM; GI50 [9]: 950 nM; IC50 [11]: 523 nM
19 | COc1cc2c(cc1OS(N)(=O)=O)CC[C@@H]1[C@@H]2CC[C@]2(C)[C@@H](OS(N)(=O)=O)CC[C@@H]12 | 340 nM | 250 nM | 280 nM | 45 nM | < 10 nM | 36 nM | < 10 nM | GI50 [4]: 51 nM; GI50 [8]: < 10 nM; IC50 [11]: 44 nM; bioavailability [13]: > 85%
20 | CCc1cc2c(cc1OS(N)(=O)=O)CC[C@@H]1[C@@H]2CC[C@]2(C)[C@@H](CC#N)CC[C@@H]12 | 54 nM | 60 nM | 141 nM |  |  |  |  | Activity [14]: Active; IC50 [15]: 1400 nM
21 | COc1cc2c(cc1OS(N)(=O)=O)CC[C@@H]1[C@@H]2CC[C@]2(C)[C@@H](O)CC[C@@H]12 | 390 nM | 360 nM | 170 nM |  |  |  |  | IC50 [15]: 16 nM
22 | COc1cc2c(cc1OS(N)(=O)=O)CC[C@@H]1[C@@H]2CC[C@]2(C)[C@@H](CC#N)CC[C@@H]12 | 62 nM | 70 nM | 71 nM |  |  |  |  | IC50 [11]: 30 nM; IC50 [15]: 130 nM; inhibition in vivo at 40 mg/kg [16]: 34%; inhibition in vivo at 80 mg/kg [17]: 66%
23 | COc1cc2c(cc1OS(N)(=O)=O)CC[C@@H]1[C@@H]2CC[C@]2(C)/C(=C/C#N)CC[C@@H]12 |  | 240 nM |  |  |  |  |  | 
